Values quoted from earlier work, collected in patent publication US20190015446A1, “MEDICINAL COMPOSITION FOR IMPROVING PROGNOSIS AFTER RESTART OF PATIENT'S OWN HEARTBEAT” (KEIO UNIVERSITY, priority 2015, published 2019).

Key:
[1] = system: rats after cardiopulmonary arrest resuscitation; conditions: inhalation from before to immediately after return of spontaneous circulation
[2] = system: healthy persons; conditions: hydrogen gas 49%

SMILES: [HH] [hydrogen gas]
- Brain and heart functions and vital prognosis after cardiopulmonary arrest resuscitation [1]: can improve brain and heart functions and vital prognosis
- Adverse reaction on inhalation [2]: no adverse reaction
